Test results as given in the NIST ThermoML archive (doi:10.1021/acs.jced.6b00096).

Experiments:
[1] = xn = mol fraction of the nth substance listed; conditions: 100 kPa, Liquid; for viscosity: Falling or rolling sphere viscometry; for mass density: Vibrating tube method

Cc1ccccc1 [toluene]
100 kPa, Liquid
Conditions | mass density, 298.15 K [kg/m3] | mass density, 318.15 K [kg/m3] | viscosity, 298.15 K [mPa·s] | viscosity, 318.15 K [mPa·s]
Falling or rolling sphere viscometry | – | – | 0.533 | 0.447
Vibrating tube method | 862.01 | 843.51 | – | –

CC(C)(C)O [2-methylpropan-2-ol] + CCO
[1]
Conditions | mass density, 298.15 K [kg/m3] | mass density, 318.15 K [kg/m3] | viscosity, 298.15 K [mPa·s] | viscosity, 318.15 K [mPa·s]
x2 = 0.045 | 781.92 | 761.37 | 4.314 | 1.724
x2 = 0.082 | 782.51 | 762.26 | 4.195 | 1.721
x2 = 0.1516 | – | 763.35 | – | 1.692
x2 = 0.1518 | 783.11 | – | 3.939 | –
x2 = 0.287 | 783.69 | – | 3.395 | –
x2 = 0.2872 | – | 764.69 | – | 1.577
x2 = 0.4083 | – | 765.58 | – | 1.442
x2 = 0.4085 | 783.95 | – | 2.86 | –
x2 = 0.5174 | 784.15 | 766.2 | 2.384 | 1.308
x2 = 0.6167 | 784.31 | – | 2.026 | –
x2 = 0.6168 | – | 766.59 | – | 1.188
x2 = 0.707 | 784.42 | – | 1.749 | –
x2 = 0.7072 | – | 766.91 | – | 1.078
x2 = 0.7896 | 784.55 | 767.15 | 1.532 | 0.983
x2 = 0.8654 | 784.72 | – | 1.349 | –
x2 = 0.8656 | – | 767.35 | – | 0.895
x2 = 0.9355 | 784.85 | 767.46 | 1.205 | 0.817

CCO [ethanol]
100 kPa, Liquid
Conditions | mass density, 298.15 K [kg/m3] | mass density, 318.15 K [kg/m3] | viscosity, 298.15 K [mPa·s] | viscosity, 318.15 K [mPa·s]
Falling or rolling sphere viscometry | – | – | 1.084 | 0.752
Vibrating tube method | 785.01 | 767.54 | – | –

Cc1ccccc1 [toluene] + CCO
[1]
Conditions | mass density [kg/m3] | viscosity [mPa·s]
298.15 K, x2 = 0.1003 | 857.16 | –
298.15 K, x2 = 0.1005 | – | 0.549
298.15 K, x2 = 0.2002 | 852.38 | –
298.15 K, x2 = 0.2013 | – | 0.558
298.15 K, x2 = 0.3 | 847.27 | –
298.15 K, x2 = 0.3002 | – | 0.577
298.15 K, x2 = 0.4 | 841.65 | –
298.15 K, x2 = 0.4003 | – | 0.606
298.15 K, x2 = 0.5001 | – | 0.644
298.15 K, x2 = 0.5002 | 835.35 | –
298.15 K, x2 = 0.6001 | 828.22 | 0.693
298.15 K, x2 = 0.7 | 819.95 | 0.754
298.15 K, x2 = 0.8 | 810.35 | 0.831
298.15 K, x2 = 0.9 | 798.87 | 0.926
318.15 K, x2 = 0.1004 | 838.1 | 0.439
318.15 K, x2 = 0.2002 | 833.2 | –
318.15 K, x2 = 0.2004 | – | 0.442
318.15 K, x2 = 0.2997 | – | 0.449
318.15 K, x2 = 0.3003 | 828.01 | –
318.15 K, x2 = 0.4003 | 822.39 | –
318.15 K, x2 = 0.4007 | – | 0.464
318.15 K, x2 = 0.5 | 816.2 | –
318.15 K, x2 = 0.5007 | – | 0.483
318.15 K, x2 = 0.5998 | – | 0.508
318.15 K, x2 = 0.6001 | 809.19 | –
318.15 K, x2 = 0.6998 | – | 0.542
318.15 K, x2 = 0.7001 | 801.21 | –
318.15 K, x2 = 0.7996 | 791.97 | –
318.15 K, x2 = 0.7999 | – | 0.585
318.15 K, x2 = 0.8998 | – | 0.641
318.15 K, x2 = 0.9 | 780.91 | –

CC(C)(C)O [2-methylpropan-2-ol] + Cc1ccccc1
[1]
Conditions | mass density, 298.15 K [kg/m3] | mass density, 318.15 K [kg/m3] | viscosity, 298.15 K [mPa·s] | viscosity, 318.15 K [mPa·s]
x2 = 0.0822 | 786.59 | 765.3 | 2.579 | 1.171
x2 = 0.1676 | – | 771.88 | – | 0.899
x2 = 0.1678 | 792.96 | – | 1.625 | –
x2 = 0.2564 | 799.78 | – | 1.184 | –
x2 = 0.2565 | – | 778.96 | – | 0.744
x2 = 0.3488 | 807.09 | – | 0.991 | –
x2 = 0.3491 | – | 786.64 | – | 0.649
x2 = 0.4458 | 815 | – | 0.868 | –
x2 = 0.4459 | – | 794.84 | – | 0.582
x2 = 0.5467 | – | 803.43 | – | 0.528
x2 = 0.5468 | 823.34 | – | 0.744 | –
x2 = 0.6524 | – | 812.43 | – | 0.486
x2 = 0.6525 | 832.08 | – | 0.624 | –
x2 = 0.7621 | 841.26 | – | 0.562 | –
x2 = 0.7627 | – | 821.89 | – | 0.461
x2 = 0.8787 | 851.02 | – | 0.561 | –
x2 = 0.8788 | – | 832.02 | – | 0.454

CC(C)(C)O [2-methylpropan-2-ol]
100 kPa
Conditions | mass density [kg/m3] | viscosity [mPa·s]
298.15 K, Metastable liquid, Falling or rolling sphere viscometry | – | 4.426
298.15 K, Metastable liquid, Vibrating tube method | 780.99 | –
318.15 K, Falling or rolling sphere viscometry, Liquid | – | 1.706
318.15 K, Vibrating tube method, Liquid | 759.66 | –
